The test system of series [1] is HT-29 cells. In words: Colony formation assay. Particulars: HT-29, treated every 3 days for 12–14 days. In kind it is cell-based, human. The method, then: The colony formation assay, also known as the clonogenic assay, is a cell biology technique used to evaluate the ability of individual cells to undergo unlimited division and form colonies. This assay is commonly employed in cancer research, radiation biology, and drug screening studies to assess cells' proliferative potential and sensitivity to various treatments or conditions. A clonogenic assay was conducted here to evaluate the inhibitory effect of the free drug and nanoencapsulated therapies on the tumor-initiating capacity or colony formation potential of the colorectal cancer cells. About 500 cells were seeded for both the cell lines HT-29 and HCT116 in each well of a 12-well plate, followed by incubation overnight. The cells were treated with 2c, 2cNP, and Apt-2cNP every 3 days for a total of 12–14 days except for the control groups. After completion of drug incubation, the treated medium was withdrawn, and the cells were washed with PBS. 10% acetic acid (in methanol) was used as a fixation buffer, and colonies were stained with crystal violet solution (0.5% crystal violet in 25% methanol) and washed with PBS three times to remove excess dye. […] After imaging, the crystal violet stained colonies were dissolved in 10% acetic acid solution for 15 min under shaking conditions, and the absorbance of the supernatant was detected using a plate reader at 510 nm.

Series [2] can be described thus: Pharmacokinetic evaluation. Particulars: CRC-bearing mice, intravenous 25 mg/kg, plasma 2c. In kind it is in vivo. The method, then:
Pharmacokinetic evaluation informs the time course of drug absorption, distribution, metabolism, and elimination (ADME) within the body. It is a crucial aspect of drug development and is vital in understanding how a drug behaves in vivo. 2c, 2cNP, and Apt-2cNP were injected separately into CRC-bearing mice through intravenous injection (dose: 25 mg/kg). Blood samples were withdrawn at 4 h, 8 h, 10 h, 12 h, 24 h, 48 h, 72 h, and 96 h post-injection, and plasma concentrations of 2c for all samples were determined using LC–MS following a previously described method. A plasma concentration vs time curve was generated using GraphPad Prism (version 5.0). Cmax and Tmax were determined directly from the curve. AUC, AUMC, and AUC0–∞ were calculated using the trapezoidal method. t1/2, MRT, and clearance values were calculated using standard formulas.

The test system of series [3] is DMH-induced CRC. In words: In vivo antitumor efficacy, Ki67 immunohistochemistry of colon. Details: species or system Swiss albino mice; dose or concentration left out as unconfirmed. The note with it: CRC mice. On the procedure: Sprague–Dawley (SD) rats (body weight = 140–160 g) and Swiss albino mice (body weight = 20–25 g) of either sex (male:female = 1:1) were selected for the chemical-induced colorectal carcinoma model. The study plan was prepared as per the guidelines of the Committee for the Purpose of Control and Supervision of Experiments on Animals (CPCSEA), India (JU-AEC; Registration Number: 1805/GO/Re/S/15/CPCSEA) and was sanctioned by the Animal Ethics Committee (AEC), Jadavpur University, (Protocol approval. no.: AEC/PHARM/1701/3/2018). The animals were procured from the National Institute of Nutrition (Hyderabad, India) and were habituated in housing conditions of 25 °C ± 1 °C temperature, 55% ± 5% relative humidity, and normal day/night photoperiod for at least 2 weeks before conducting any experiment. For the development of CRC-bearing mice, Dimethylhydrazine (DMH) was injected intraperitoneally at a dose of 20 mg/kg body weight once a week for 12 weeks. In contrast, for generating CRC-bearing rats, DMH was administered intraperitoneally at a dose of 25 mg/kg body weight once a week for 9 weeks, as described previously.
Evaluating in vivo antitumor efficacy with histopathological observations is essential to preclinical studies in cancer research and drug development. […] Ki67-positive and -negative cells were counted in microscopic images taken after staining using QuPath-0.3.2 software.

Series [4] deals with CRC tumor microenvironment. In words: Cytokines (ELISA) and immune cells (flow cytometry) in CRC tumor microenvironment. In kind it is in vivo. The note with it: CRC mice, 24 h and 48 h. The method, then: Colorectal tissues were isolated from the CRC-bearing mice before and after treatment with 2c, 2cNP, and Apt-2cNP, followed by washing with ice-cold PBS. Colons were then minced into small pieces and agitated with predigestion buffer (HBSS, 10 mM HEPES, 5 mM EDTA, 1 mM DTT, 5% FBS) for 20 min in a 37 °C incubator-shaker. The single cells suspension from the colonic tissues was prepared using a 100 µm cell strainer. The remaining tissue pieces collected from the cell strainer were then cut into finer fragments and treated with digestion solution (HBSS, 10 mM EDTA, 0.5 mg/ml collagenase D, 3 mg/ml dispase II and 5% FBS) in a 37 °C incubator-shaker for 30 min. The dissociated cells from the tissues were collected again through a 100 µm cell strainer. All the single-cell suspensions were pooled together and centrifuged using Percoll gradient. The lymphocytes were suspended in 4 ml of 40% Percoll solution and layered over 12 ml of 80% Percoll solution. Centrifugation was then carried out without a break at 1000 g for 20 min. The T cells were collected from the liquid interphase and resuspended in PBS or RPMI 1640 medium for further experiments.
To analyze cytokine levels (TNFα, IFNγ, and IL-10) and all other ELISA assays, sandwich ELISA kits were used. […] The reading was monitored using a multi-plate reader and then compared with the standard curve for actual measurement of the cytokine level. […]

Series [5] deals with CRC cancer tissue. In words: Gene expression by qPCR in CRC tumor tissue. It counts as in vivo, mice. The note with it: CRC mouse model. The method, then: Gene expression analysis by quantitative real-time polymerase chain reaction (qPCR) is widely used in molecular biology and genetics research. qPCR allows the detection and quantification of specific RNA transcripts, providing insights into the expression levels of genes under various conditions or in different cell types or tissues. The expression of several genes related to apoptosis, autophagy, DNA synthesis, and inflammatory pathways were analyzed after treatment with 2c, 2cNP, and Apt-2cNP to understand the molecular mechanism behind their cytotoxic effects and to determine differences between aptamer-conjugated and unconjugated nanoparticles. Total RNA from CRC cancer tissue before and after treatment was isolated after completion of treatment time using TRIzol, following the manufacturer’s protocol. The RNA was checked for quality by measuring the […] ratio and quantified in a NanoDrop instrument. Then, cDNAs were prepared using RevertAid First Strand cDNA synthesis kit (ThermoFisher) followed by amplified using SYBR Green Master Mix (BioRad) in a thermal cycler (Veriti 96-well, Applied Biosystems, Massachusetts, USA). Relative transcript abundance values obtained from the instrument were plotted in bar diagrams. A total of 12 genes (caspase 3, Bcl-2, Bcl-XL, Bax, Atg5, LC3B, Beclin, p62, NF-κB, APC, p53, and TOP2) were analyzed for each sample. Sequences of the primers used (both forward primer and reverse primer) for each gene are in Supplementary Table T2.
(In general: Real-time PCR tracks product formation cycle by cycle.)

Each structure is given as a SMILES string.

`C=C(C)[C@@H]1CC[C@]2(C(=O)O)CC[C@]3(C)[C@H](CC[C@@H]4[C@@]5(C)CC[C@H](OC(=O)Cn6cc(CO)nn6)C(C)(C)[C@@H]5CC[C@]43C)[C@@H]12` [2c, (3S)-3-[2-(4-hydroxymethyl-1H-1,2,3-triazol-1-yl)acetyloxy]-lup-20(29)-en-28-oic acid]: the “Inhibition of colony formation” value in series [1] is recorded as “moderate prohibition in colony formation”. In addition, in series [2], the “AUC 0-∞” value was 380 ± 44 ng·h/mL, the AUC last was found to be 376 ± 42 ng·h/mL, the AUMC amounted to 8381 ± 1644 ng.h2/ml and the Clearance was 333 ± 30 mL/h. In addition, in series [2], the Cmax – broadly, the peak of the concentration-time curve – was 23.5 ± 0.55 ng/mL; the MRT (in general, a mean duration of stay, worked out from the concentration-time curve) came out at 22.3 ± 1.72 h; the Tmax – broadly, the time at which the peak concentration occurs – is 1 min; the Vd (as a rule, a proportionality between amount in the body and measured concentration, not a real space) stood at 2.88 ± 0.15 L. The molecule further came in with a t1/2 in series [2] of 6 ± 0.5 h. Also, in series [3], the “Ki67-positive cells in colon” value stood at 58.88 ± 1.2%. The “Percentages of CD4 and CD8 T cells in TME” value in series [4] is “did not change”. In addition, the “Topoisomerase-II RNA level” value in series [5] (24 h and 48 h after treatment) is reported as “time-dependent decrease”. For the same molecule, in series [5] (24 h and 48 h treatment), the “RNA expression of anti-apoptotic genes (Bcl-2 and Bcl-XL)” value is reported as “decrease”; the “RNA expression of pro-apoptotic genes (caspase 3 and Bax)” value was “time-dependent increase”. Besides, in series [5] (24 h or 48 h after treatment), the “RNA expression of autophagy-related genes (Atg5, LC3B, Beclin)” value was “time-dependent increase” and the p62 expression result was “decrease”.

Values taken from publication PMC11334571, “EpCAM-targeted betulinic acid analogue nanotherapy improves therapeutic efficacy and induces anti-tumorigenic immune response in colorectal cancer tumor microenvironment” (Journal of Biomedical Science, 2024).
